Laboratory results from publication PMC9780108, “An intrinsically disordered antimicrobial peptide dendrimer from stereorandomized virtual screening” (Cell Reports. Physical Science, 2022).
In brackets after ≈: the same amount, converted by molar mass. Residues, ends and D or L forms follow the SMILES beside them.

Assays:
S. aureus Newman = conditions: Newman, pH 7.4
P. aeruginosa ZEM9A = conditions: ZEM9A, pH 7.4
E. cloacae = conditions: pH 7.4
[1] = tested on: S aureus COL (methicillin-resistant Staphylococcus aureus); conditions: for MIC at pH 5.0, S aureus COL: COL (methicillin-resistant, pH 5); for MIC at pH 7.4, S aureus COL: COL (methicillin-resistant, pH 7.4); for MIC at pH 8.0, S aureus COL: COL (methicillin-resistant, pH 8)
B. cenocepacia = conditions: pH 7.4
P. aeruginosa ZEM-1A = conditions: ZEM-1A, pH 7.4
E. coli W3110 = conditions: for MIC at pH 5.0, E. coli W3110: W3110, pH 5; for MIC at pH 7.4, E. coli W3110: W3110, pH 7.4; for MIC at pH 8.0, E. coli W3110: W3110, pH 8
P. aeruginosa PA14 = conditions: PA14, pH 7.4
HEK293 cell line = assay type: cell-based; conditions: 48 h
In short: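 HEK293 cells seeded at 2 × 10³/well, incubated 48 h at 37 °C with serially diluted compounds (stock 2 mg/mL) in DMEM with 10% FBS. AlamarBlue added at 10% final for 3–5 h; fluorescence ex 560/em 590 nm, normalized to untreated cells.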

K. pneumoniae NCTC 418 = conditions: for MIC at pH 5.0, K. pneumoniae NCTC 418: NCTC 418, pH 5; for MIC at pH 7.4, K. pneumoniae NCTC 418: NCTC 418, pH 7.4; for MIC at pH 8.0, K. pneumoniae NCTC 418: NCTC 418, pH 8
S. maltophilia = conditions: pH 7.4
P. aeruginosa PAO1 [2] = conditions: for MIC at pH 5.0, P. aeruginosa PAO1: PAO1, pH 5; for MIC at pH 7.4, P. aeruginosa PAO1: PAO1, pH 7.4; for MIC at pH 8.0, P. aeruginosa PAO1: PAO1, pH 8
K. pneumoniae OXA-48 = conditions: OXA-48, pH 7.4
A. baumannii ATCC 19606 = conditions: for MIC at pH 5.0, A. baumannii ATCC 19606: ATCC 19606, pH 5; for MIC at pH 7.4, A. baumannii ATCC 19606: ATCC 19606, pH 7.4; for MIC at pH 8.0, A. baumannii ATCC 19606: ATCC 19606, pH 8
P. aeruginosa PAO1 [3] = experiment: PI cell permeabilization assay (flow cytometry); assay type: cell-based, Pseudomonas aeruginosa; conditions: PAO1 (OD600 = 1) incubated 20 min at 37°C, PI 5 µg/mL
Protocol: page 31: 12. Cell Membrane Permeability Assay Propidium iodide (PI) was used as the fluorescent dye to evaluate integrity of bacterial membranes. A single colony of Pseudomonas aeruginosa PAO1 was grown overnight with shaking (150 rpm) in LB-broth (5 mL) at 37 °C. 100 μL of the overnight culture was regrown in 10 mL LB-broth to the exponential phase OD600 1 (10^9 CFU/mL). Bacteria was washed with MH and then re-suspended to a working concentration of OD600 = 1. AMPDs and polymyxin B (stock solution 1 mg/mL) were added at different final concentrations ( 16, 32 and 64 μg/mL). Samples were incubated with shaking (150 rpm) at 37°C for 20 minutes before samples were centrifuged at 14 000 rpm for 3 min. Bacteria sample was washed twice with PBS and stained with PI 5 µg/mL in PBS with shaking (150 rpm) at 37°C for 20 minutes. Bacteria sample was washed 5 times with PBS and the fluorescence intensity of bacteria suspensions was observed and recorded on a ImageStream ® X Mark II Imaging Flow Cytometer with a 488 nm laser , bacteria cells wi th fluorescent intensity higher than 2 × 104 is defined as PI positive cells. Percentage of PI positive cells was calculated by IDEA S workstation . S30

P. aeruginosa PAO1 [4] = experiment: DiSC3(5) inner membrane depolarization assay; assay type: cell-based, Pseudomonas aeruginosa; conditions: PAO1 in HEPES buffer pH 7.4, 2 μM DiSC3(5), up to 64 μg/mL, read within 5 min
Protocol: page 29: 11. DiSC3(5) Membrane Depolarization Assay A single colony of Pseudomonas aeruginosa PAO1 was grown overnight with shaking (150 rpm) in LB-broth (5 mL) at 37 °C. 100 μL of the overnight culture was regrown in 10 mL LB- broth with shaking (200 rpm) to the exponential phase OD 600 = 1 (10^9 CFU/mL). Bacteria were washed once with HEPES buffer (5 mM HEPES, 5 mM glucose, pH 7.4) and diluted to OD 600 = 0.4. Stock solution of 10 mM of DiSC3(5) was prepared in DMSO. Stock solutions of 1 mg/mL of the compounds were prepared in sterilized milli-Q water and diluted to the beginning concentration of 128 μg/mL in 200 μL HEPES buffer containing […] the fluorescent probe DiSC3(5) 4 μM. The diluted samples were added to the first well of 96-well plates (black wells, flat bottom, BRAND® GmbH Wertheim, Germany) and diluted serially by 1/2. 100 μL of the bacterial suspension in HEPES buffer (without DiSC3(5)) were added to each well. In this case, the final OD of bacteria was 0.2, the final concentration of peptide in the first column is 64 μg/mL and DiSC3(5) 2 μM. The control wells are buffer containing DiSC3(5) and bacterial suspension containing DiSC3(5) in HEPES buffer. The plate was measured with a Tecan instrument Infinite M1000 within 5 min. The plate was enabled to shake for 5 sec before measurement. […]

Compound	MIC, S. aureus Newman (S. aureus Newman) [µg/mL]	MIC, P. aeruginosa ZEM9A (P. aeruginosa ZEM9A) [µg/mL]	MIC, E. cloacae (E. cloacae) [µg/mL]	MIC at pH 5.0, S aureus COL [1] [μg/mL]	MIC at pH 7.4, S aureus COL [1] [μg/mL]	MIC at pH 8.0, S aureus COL [1] [μg/mL]	MIC, B. cenocepacia (B. cenocepacia) [µg/mL]	MIC, P. aeruginosa ZEM-1A (P. aeruginosa ZEM-1A) [µg/mL]	MIC at pH 5.0, E. coli W3110 (E. coli W3110) [μg/mL]	MIC at pH 7.4, E. coli W3110 (E. coli W3110) [μg/mL]	MIC at pH 8.0, E. coli W3110 (E. coli W3110)	MIC, P. aeruginosa PA14 (P. aeruginosa PA14) [µg/mL]	IC50 HEK293 (HEK293 cell line) [µg/mL]	MIC at pH 5.0, K. pneumoniae NCTC 418 (K. pneumoniae NCTC 418) [μg/mL]	MIC at pH 7.4, K. pneumoniae NCTC 418 (K. pneumoniae NCTC 418) [μg/mL]	MIC at pH 8.0, K. pneumoniae NCTC 418 (K. pneumoniae NCTC 418) [μg/mL]	MIC, S. maltophilia (S. maltophilia) [µg/mL]	MIC at pH 5.0, P. aeruginosa PAO1 (P. aeruginosa PAO1 [2]) [μg/mL]	MIC at pH 7.4, P. aeruginosa PAO1 (P. aeruginosa PAO1 [2]) [μg/mL]	MIC at pH 8.0, P. aeruginosa PAO1 (P. aeruginosa PAO1 [2])	further results
CC(C)C[C@H](NC(=O)[C@H](CCCCN)NC(=O)[C@H](CCCCNC(=O)[C@H](CC(C)C)NC(=O)[C@H](CCCCN)NC(=O)[C@H](CCCCNC(=O)[C@H](CC(C)C)NC(=O)[C@H](CCCCN)NC(=O)[C@H](CCCCNC(=O)[C@H](CC(C)C)NC(=O)[C@@H](N)CCCCN)NC(=O)[C@H](CC(C)C)NC(=O)[C@@H](N)CCCCN)NC(=O)[C@H](CC(C)C)NC(=O)[C@H](CCCCN)NC(=O)[C@H](CCCCNC(=O)[C@H](CC(C)C)NC(=O)[C@@H](N)CCCCN)NC(=O)[C@H](CC(C)C)NC(=O)[C@@H](N)CCCCN)NC(=O)[C@H](CC(C)C)NC(=O)[C@H](CCCCN)NC(=O)[C@H](CCCCNC(=O)[C@H](CC(C)C)NC(=O)[C@H](CCCCN)NC(=O)[C@H](CCCCNC(=O)[C@H](CC(C)C)NC(=O)[C@@H](N)CCCCN)NC(=O)[C@H](CC(C)C)NC(=O)[C@@H](N)CCCCN)NC(=O)[C@H](CC(C)C)NC(=O)[C@H](CCCCN)NC(=O)[C@H](CCCCNC(=O)[C@H](CC(C)C)NC(=O)[C@@H](N)CCCCN)NC(=O)[C@H](CC(C)C)NC(=O)[C@@H](N)CCCCN)C(N)=O [L-G3KL, reference compound] (HELM PEPTIDE1{K.L.K.K.L.K.K.L.K.K.L.[am]}|PEPTIDE2{K.L}|PEPTIDE3{K.L.K.K.L.K.K.L}|PEPTIDE4{K.L}|PEPTIDE5{K.L.K.K.L}|PEPTIDE6{K.L}|PEPTIDE7{K.L.K.K.L}|PEPTIDE8{K.L}$PEPTIDE1,PEPTIDE2,3:R3-2:R2|PEPTIDE3,PEPTIDE4,3:R3-2:R2|PEPTIDE5,PEPTIDE6,3:R3-2:R2|PEPTIDE7,PEPTIDE8,3:R3-2:R2|PEPTIDE1,PEPTIDE7,6:R3-5:R2|PEPTIDE1,PEPTIDE3,9:R3-8:R2|PEPTIDE3,PEPTIDE5,6:R3-5:R2$$$V2.0)	>64	16 (≈ 3.53 µM)	8 (≈ 1.76 µM)	> 64	> 64	2	>64	4 (≈ 0.882 µM)	32	8	1–2 μg/mL	2 to 4	460 ± 17 (≈ 101 µM)	> 64	> 64	4	8 (≈ 1.76 µM)	16	4	1 μg/mL	MIC, K. pneumoniae OXA-48 (K. pneumoniae OXA-48): >64 µg/mL; MIC at pH 5.0, A. baumannii ATCC 19606 (A. baumannii ATCC 19606): 8 μg/mL; MIC at pH 7.4, A. baumannii ATCC 19606 (A. baumannii ATCC 19606): 8 μg/mL; MIC at pH 8.0, A. baumannii ATCC 19606 (A. baumannii ATCC 19606): 1 μg/mL
CC(C)C[C@H](NC(=O)[C@H](CCCCN)NC(=O)[C@H](CCCCN)NC(=O)[C@H](CCCCNC(=O)[C@H](CC(C)C)NC(=O)[C@H](CC(C)C)NC(=O)[C@H](CCCCN)NC(=O)[C@H](CCCCNC(=O)[C@H](CC(C)C)NC(=O)[C@H](CCCCN)NC(=O)[C@H](CCCCNC(=O)[C@H](CC(C)C)NC(=O)[C@@H](N)CCCCN)NC(=O)[C@H](CC(C)C)NC(=O)[C@@H](N)CCCCN)NC(=O)[C@H](CC(C)C)NC(=O)[C@H](CCCCN)NC(=O)[C@H](CCCCNC(=O)[C@H](CC(C)C)NC(=O)[C@@H](N)CCCCN)NC(=O)[C@H](CC(C)C)NC(=O)[C@@H](N)CCCCN)NC(=O)[C@H](CC(C)C)NC(=O)[C@H](CC(C)C)NC(=O)[C@H](CCCCN)NC(=O)[C@H](CCCCNC(=O)[C@H](CC(C)C)NC(=O)[C@H](CCCCN)NC(=O)[C@H](CCCCNC(=O)[C@H](CC(C)C)NC(=O)[C@@H](N)CCCCN)NC(=O)[C@H](CC(C)C)NC(=O)[C@@H](N)CCCCN)NC(=O)[C@H](CC(C)C)NC(=O)[C@H](CCCCN)NC(=O)[C@H](CCCCNC(=O)[C@H](CC(C)C)NC(=O)[C@@H](N)CCCCN)NC(=O)[C@H](CC(C)C)NC(=O)[C@@H](N)CCCCN)C(N)=O [L-T7, reference compound] (HELM PEPTIDE1{K.L.K.K.L.K.K.L.L.K.K.K.L.[am]}|PEPTIDE2{K.L}|PEPTIDE3{K.L.K.K.L.K.K.L.L}|PEPTIDE4{K.L}|PEPTIDE5{K.L.K.K.L}|PEPTIDE6{K.L}|PEPTIDE7{K.L.K.K.L}|PEPTIDE8{K.L}$PEPTIDE1,PEPTIDE2,3:R3-2:R2|PEPTIDE3,PEPTIDE4,3:R3-2:R2|PEPTIDE5,PEPTIDE6,3:R3-2:R2|PEPTIDE7,PEPTIDE8,3:R3-2:R2|PEPTIDE1,PEPTIDE7,6:R3-5:R2|PEPTIDE1,PEPTIDE3,10:R3-9:R2|PEPTIDE3,PEPTIDE5,6:R3-5:R2$$$V2.0)	>64	8 (≈ 1.64 µM)	8 (≈ 1.64 µM)	> 64	> 64	4	>64	4 (≈ 0.818 µM)	16	4	2 μg/mL	8 (≈ 1.64 µM)	70 ± 6 (≈ 14.3 µM)	> 64	32	8	4 (≈ 0.818 µM)	16	8	2–4 μg/mL	MIC, K. pneumoniae OXA-48 (K. pneumoniae OXA-48): 16 µg/mL (≈ 3.27 µM); MIC at pH 5.0, A. baumannii ATCC 19606 (A. baumannii ATCC 19606): 16 μg/mL; MIC at pH 7.4, A. baumannii ATCC 19606 (A. baumannii ATCC 19606): 8 μg/mL; MIC at pH 8.0, A. baumannii ATCC 19606 (A. baumannii ATCC 19606): 2–4 μg/mL
PMB nonapeptide [PMBN]																					Cell permeabilization (PI), percentage of PI-positive cells (P. aeruginosa PAO1 [3]; 16 μg/mL): 40%; Cell permeabilization (PI), percentage of PI-positive cells (P. aeruginosa PAO1 [3]; 32 μg/mL): 38%; Cell permeabilization (PI), percentage of PI-positive cells (P. aeruginosa PAO1 [3]; 64 μg/mL): 37%; Inner membrane depolarization (DiSC3(5) fluorescence), words (P. aeruginosa PAO1 [4]): no effect on inner membranes
